According to patent US6713051B2, “Antiperspirant or deodorant compositions” (Unilever Home & Personal Care USA division of Conopco, Inc., priority 2001, dated 2004):

Assays:
Assay type in all cases: cell-based
human PPARα = target: T1, human PPARα (Homo sapiens, UniProt Q07869); assay: PPARα reporter gene assay (firefly luciferase, transiently transfected Cos-7 cells); settings: for Result (superior activity class achieved): class reached; for Pass at (lowest tested administration level at which the test material passed): pass = activation greater than oleic acid at 100 μM, commonly >1.57 times vehicle control, 24 h treatment
T1 construct: The coding region of a human PPARα cDNA was inserted downstream of the CMV promoter; expressed in transfected cells; host or cells: Cos-7 cells, transient transfection (pcDNA3.1(−)-PPARα, pRSV-RXRα, 3xPPRE-TK-luc reporter, pRL-TK)
T1 sequence (Q07869 1-468): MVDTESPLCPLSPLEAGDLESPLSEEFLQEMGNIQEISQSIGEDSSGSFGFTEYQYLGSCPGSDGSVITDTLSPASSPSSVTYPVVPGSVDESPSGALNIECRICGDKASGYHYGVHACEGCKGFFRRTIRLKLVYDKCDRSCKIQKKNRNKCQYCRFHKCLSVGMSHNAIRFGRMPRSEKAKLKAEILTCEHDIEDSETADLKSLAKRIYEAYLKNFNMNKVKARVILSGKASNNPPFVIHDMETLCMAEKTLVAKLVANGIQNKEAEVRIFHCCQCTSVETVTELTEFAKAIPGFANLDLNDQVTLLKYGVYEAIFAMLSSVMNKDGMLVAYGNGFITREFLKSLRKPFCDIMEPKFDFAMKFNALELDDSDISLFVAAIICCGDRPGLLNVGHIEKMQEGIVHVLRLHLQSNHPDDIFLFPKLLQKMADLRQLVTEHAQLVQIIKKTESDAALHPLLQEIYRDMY
T1 sequence (P19793 1-462 partner): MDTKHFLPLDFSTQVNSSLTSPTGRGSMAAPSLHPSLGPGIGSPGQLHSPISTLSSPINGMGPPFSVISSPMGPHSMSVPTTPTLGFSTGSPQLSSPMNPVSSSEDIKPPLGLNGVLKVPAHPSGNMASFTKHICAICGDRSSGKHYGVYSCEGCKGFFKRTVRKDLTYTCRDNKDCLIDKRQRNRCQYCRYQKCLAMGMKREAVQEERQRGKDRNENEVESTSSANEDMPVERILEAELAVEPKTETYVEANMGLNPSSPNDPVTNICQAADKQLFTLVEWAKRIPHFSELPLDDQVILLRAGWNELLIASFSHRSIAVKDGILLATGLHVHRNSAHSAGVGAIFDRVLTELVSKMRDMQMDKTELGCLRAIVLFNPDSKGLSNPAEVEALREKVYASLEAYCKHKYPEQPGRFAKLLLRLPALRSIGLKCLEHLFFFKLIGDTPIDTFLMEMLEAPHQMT
Source text: One convenient reporter assay for determining whether a fatty acid material is PPARα activating is based upon the firefly luciferase gene.
Fatty acids were screened to identify PPAR activating fatty acids using a reporter assay.
This assay relied on ligands binding to and activating the PPARα protein, which, in turn, activated genes under the control of PPAR response elements (PPRE). In the assay, the firefly luciferase gene was cloned behind a promoter containing 3 copies of the fatty acid binding protein PPRE.
The assay was performed by transient transfection of Cos-7 cells with a mixture of four DNA plasmids. These were:
1) PPAR reporter gene construct (Modified pNF-KB-luc reporter vector (Firefly luciferase reporter vector commercially available form Clontech (NF-kB response element, TK minimal promoter, luc^+, f1 origin, pUC origin, amp^r)). A tandem repeat of 3 PPAR response elements (PPREs) corresponding to the PPRE found in the fatty acid binding protein promoter was inserted upstream of the minimal TK promoter to replace the NF-κB response element);
2) 2) Over-expressing PPARα construct (Modified pcDNA3.1(−) vector (A mammalian expression vector commercially available from Invitrogen (CMV promoter, f1 origin, SV40 origin, ColE1 origin, neo^r, amp^r)). The coding region of a human PPARα cDNA was inserted downstream of the CMV promoter of pcDNA3.1 (−)). […] The coding region of a human RXRα cDNA has been inserted downstream of the RSV promoter. (Gift of V. K. K. Chatterjee, Addenbrooke's Hospital, Cambridge)) 4) Control luciferase construct (pRL-TK Renilla luciferase reporter vector commercially available from Promega (HSV-TK promoter, T7 promoter, Rluc^+, ori, amp^r)). For the transfection, DNA was made up as a mix of PPAR reporter gene: PPARα: RXRα: control in the ratio 40:4:3:3.
Cos-7 cells were grown in Dulbecco's modified Eagle's Medium, also herein referred to as DMEM with 10% foetal calf serum, herein also referred to as FCS at 37° C., 5% CO2 to 80% confluency. Cells were then plated out in 24 well plates at 50,000 cells per well and incubated overnight in DMEM with 10% FCS at 37° C., 5% CO2. Cells were then transfected using the LipofectAMINE reagent (GibcoBRL). For each well 0.4 μg of DNA mix (in 25 μl of DMEM) was incubated with 1 μl LipofectAMINE (in 25 μl of DMEM) for 45 minutes. The mixture was then made up to 250 μl per well and added to the cells, which had been washed with 1 ml of DMEM. Cells were then incubated for 5 hours at 37° C., 5% CO2 and 250 μl DMEM with 10% SBCS (charcoal stripped bovine calf serum) added. Cells were incubated for 18 hours at 37° C., 5% CO2 before being treated with the appropriate compound/extract. Test compounds were made up as 1000× stocks (in DMSO or ethanol as appropriate) and diluted into DMEM with 10% SBCS (500 μl per well) immediately before being added to cells. Each treatment was performed in triplicate. The transfection mix was removed from the cells and replaced with the treatment mix, and incubated for 24 hours at 37° C., 5% CO2. Cells were washed with 1 ml of PBS (without calcium or magnesium) and then lysed with 100 μl per well of 1× Passive Lysis Buffer (as supplied with Promega Dual Luciferase assay kit). Lysis was allowed to continue for 15 minutes and then the lysate was assayed for Firefly and Renilla luciferase activity using the Promega Dual Luciferase assay kit. For the assay, 20 μl of lysate was taken and assayed as described in the kit instructions using a MLX microtiter™ plate luminometer (Dynex).
Firefly luciferase activity (PPAR driven) was normalised against the Renilla luciferase value for that well and the mean calculated for the three wells treated with the same agent. Activity was then expressed as fold activation over the vehicle (DMSO or ethanol) control values for that particular plate.

interleukin-6 (IL-6) = assay: Skin organotypic culture analysis: AP-induced IL-6 release into the medium; settings: for IL-6: 24 h, Nil 51.7, AP 118.8
Experimental: (§1) The cultures were then incubated at 37° C., 5% CO2, and 95% relative humidity (standard cell culture conditions) for 24 h. The culture medium was assayed for the pro-inflammatory cytokine interleukin-6 (IL-6) and after washing to remove the AP formulation, the viability of the culture was determined using the Thiazoyl blue (MTT) assay (Mosmann, T. J. Immunol. Methods 65, p55 (1983). IL-6 was determined using an Immunoassay (Quantikine, R&D systems).
In this Example, skin organotypic cultures (Epiderm™, MatTek, USA) were treated topically with the above-identified AP formulation and the trans-10-cis-12 conjugated linoleic acid (TC CLA) was introduced into the medium. The cultures were then incubated at 37° C., 5% CO2, and 95% relative humidity (standard cell culture conditions) for 24 h. The culture medium was assayed for the pro-inflammatory cytokine interleukin-6 (IL-6) and after washing to remove the AP formulation, the viability of the culture was determined by the method described in Example 2.
as §1, with “hours.” for “h.”, “MTT assay.” for “Thiazoyl blue (MTT) assay (Mosmann, T. J. Immunol. Methods 65, p55 (1983).”, “ELISA assay (R&D” for “Immunoassay (Quantikine, R&D”

[1] = system: Human foreskin keratinocytes; assay: Keratinocyte cornified envelope assay; settings: for Cornified envelopes assay: 4 days, control (0 μM) 17996
Experimental: (§2) Human foreskin keratinocytes (passage 3) were seeded at 4000 cells/well in 96 well plates in Keratinocyte Growth Medium (abbreviated to KGM) containing 0.03 mM calcium and grown for 3 days at 37° C. The cells were then treated with PPAR ligands in KGM containing 0.03 mM calcium for 4 days prior to harvest. Stock solutions of PPAR ligands were dissolved in dimethylsulphoxide (DMSO) and diluted in KGM before adding to the cells. […] The harvested cells were washed 3× in phosphate buffered saline (PBS) and extracted in 1% Triton X100, 50 mM (tris[hydroxymethyl]aminomethane) (Tris) pH 8.0 plus protease inhibitors pepstatin and leupeptin (100 μl/well). The extract was assayed for DNA content using the Pico Green DNA assay (Molecular Probes, Inc.).
After Tris-triton extraction for TGase assay, the cells were extracted with 100 μl/well of 2% SDS, 20 mM DTT for 16 hours at 60° C. Once extracted the SDS suspension from each well was individually filtered through polyviylidenefluoride (PVDF) membrane (Immobilon-P™ Transfer Membrane, Millipore) which had been pre-blocked in Tris Buffered Saline (TBS) containing 0.5% (v/v) Tween 20, 0.5% using a Dot Blot TM Apparatus (Bio-Rad). Each sample was washed several times with TBS/Tween buffer before the membrane was removed from the apparatus, rinsed in distilled water and silver stained using silver stain kit (Bio-Rad). The stained dot blot membrane was scanned and analysed using Phoretix Array™ software.
Cultured keratinocytes were treated with pinoleic acid for 4 days. The cells were extracted with 2% SDS, 20 mM DTT and the cornified envelopes were quantified, after filtration using a PDVF membrane, by silver staining, as described above.

[2] = system: Human foreskin keratinocytes; assay: Keratinocyte proliferation analysis (DNA content per well, Pico Green); settings: for DNA: 4 days, control (0 μM) 1.66
Experimental: as §2
Cultured keratinocytes were treated with cis-9-trans-11 conjugated linoleic acid (CT-CLA) for 4 days. The cells were extracted with Tris-1% Triton X100 and the DNA content per well was determine by the Pico Green assay in accordance with the above described procedure.

| Compound | Result at (lowest administration level at which super or MS activity was achieved) (human PPARα) [μm] | Result (superior activity class achieved) (human PPARα) | Pass at (lowest tested administration level at which the test material passed) (human PPARα) [μm] | other results |
| --- | --- | --- | --- | --- |
| CCCCC/C=C\C=C\CCCCCCCCC(=O)O [CLA (t10, c12), trans-10-cis-12 conjugated linoleic acid] | 100 | super (superior activity [super] (50% higher—at least 2.25 times PPARα activation)) | 50 | AP-induced IL-6 release (interleukin-6 (IL-6); 5 and 500 μM, Dunnet's test p<0.01): significantly decrease; IL-6 (interleukin-6 (IL-6); Table 5: 5 μM in medium + AP): 59.6 pg/mL; IL-6 (interleukin-6 (IL-6); Table 5: 500 μM in medium + AP): 57.1 pg/mL |
| CCCCCCCCCCCCCC/C=C\CCCC(=O)O [cis-5 eicosenoic acid] | 100 | MS (more superior activity [MS] (100% higher—at least 3 times PPARα activation)) | 10 | – |
| CCCC/C=C\CCCCCCCCCCCC(=O)O [cis-13-octadecenoic acid] | – | – | 50 | – |
| CCC=CCC=CC/C=C\CCCCCCCCCC(=O)O [cis-11,14,17 eicosatrienoic acid] | 100 | MS (more superior activity [MS] (100% higher—at least 3 times PPARα activation)) | 100 | – |
| CCCCC/C=C/CCCCCCCCCCC(=O)O [trans-12-octadecenoic acid] | – | – | 100 | – |
| hexadecatrienoic acid | 10 | super (superior activity [super] (50% higher—at least 2.25 times PPARα activation)) | 10 | cornified envelope formation, statement ([1]; Example 9: 1-10 μM, 1 way ANOVA, p<0.05): significantly increase; Cornified envelopes assay ([1]; Table 10: 0.1 μM): 17617 arb. Units; Cornified envelopes assay ([1]; Table 10: 1 μM): 36017 arb. Units; Cornified envelopes assay ([1]; Table 10: 10 μM): 40997 arb. Units; keratinocyte DNA synthesis activity, statement ([2]; Example 14: 0.1-10 μM, 1 way ANOVA, p<0.05): significantly reduce; DNA ([2]; Table 15: 0.1 μM): 0.98 ng/well; DNA ([2]; Table 15: 1 μM): 1.27 ng/well; DNA ([2]; Table 15: 10 μM): 1.13 ng/well |
| CCCCCC/C=C/C=C/CCCCCCCC(=O)O [CLA (t9, t11)] | 100 | MS (more superior activity [MS] (100% higher—at least 3 times PPARα activation)) | 50 | – |
| CCCCCC/C=C/CCCCCCCCCC(=O)O [trans vaccenic acid] | – | – | 10 | – |
| CC/C=C\CCCCCCCCCCCCCC(=O)O [cis-15-octadecanoic acid] | – | – | 100 | – |
